As usually defined, the IC50 is the point on the concentration scale where inhibition reaches its midpoint. The term Kd denotes the equilibrium constant for the complex coming apart. Lower therefore signals a tighter complex.

This note sets out measurements from PMC13330650 (Matrix biology : journal of the International Society for …, 2025).

For test [1], the target named is T1, UGDH S316A (Homo sapiens, UniProt O60701, S316A).
T1 construct: six-histidine; made in house; host or cells: E. coli BL21(DE3)
T1 sequence (O60701 1-494 S316A): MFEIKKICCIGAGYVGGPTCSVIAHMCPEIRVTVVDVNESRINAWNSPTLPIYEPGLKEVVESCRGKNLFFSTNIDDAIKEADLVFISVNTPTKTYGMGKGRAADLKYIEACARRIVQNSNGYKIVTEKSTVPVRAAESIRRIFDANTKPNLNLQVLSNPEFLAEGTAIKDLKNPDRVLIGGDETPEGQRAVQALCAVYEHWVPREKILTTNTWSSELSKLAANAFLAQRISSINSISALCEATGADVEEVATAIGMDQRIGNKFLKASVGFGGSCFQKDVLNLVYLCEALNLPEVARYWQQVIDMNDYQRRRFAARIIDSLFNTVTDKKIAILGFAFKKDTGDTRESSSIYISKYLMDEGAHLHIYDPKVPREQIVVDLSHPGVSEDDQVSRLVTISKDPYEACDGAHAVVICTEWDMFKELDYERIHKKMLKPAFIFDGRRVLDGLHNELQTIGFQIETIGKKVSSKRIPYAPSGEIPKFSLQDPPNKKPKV
In words: UDP-Xyl inhibition of the catalytic reaction, UGDH S316A. The conditions noted are these: sub-saturating UDP-Glc and NAD+, read-out: UDP-Xylose IC50. The class given is biochemical. The source says:
(§1) Finally, we tested whether the S316 point mutants impacted inhibition of UGDH by UDP-xylose (UDP-Xyl), which is an endogenous competitive inhibitor of UGDH with nM affinity that causes a conformational change in the crystal structure exposing one of the dimer interfaces. We measured the concentration dependence of UDP-Xyl inhibition in the context of the catalytic reaction at sub-saturating UDP-Glc and NAD^+ and used the resultant curves to calculate the IC50 for UGDH S316A and S316D (Table 1). […] Binding of UDP-Xyl to UGDH independently of catalysis was measured by ITC. […]
(§2) Purified S316 mutants were compared to the UGDH WT enzyme using the following approaches as previously described. Enzymatic activity was evaluated by steady state kinetics in the presence and absence of the endogenous inhibitor UDP-Xylose to compare Michaelis constants and IC50 values. Intrinsic stability was assessed by thermal denaturation and quaternary structure was determined by size exclusion chromatography. Binding of UDP-Xylose to recombinant UGDH and mutants was measured by isothermal titration calorimetry using the MicroCal PEAQ-ITC (Malvern Panalytical). […] Binding heats were corrected for the heat of dilution and analyzed using the MicroCal PEAQ-ITC Analysis Software, employing a single-site binding model to determine Kd values.

Test [2] concerns the target T2, UGDH S316D (Homo sapiens, UniProt O60701, S316D).
T2 construct: six-histidine; made in house; host or cells: E. coli BL21(DE3)
T2 sequence (O60701 1-494 S316D): T1 sequence (O60701 1-494 S316A) with A316D
The test can be described thus: UDP-Xyl inhibition of the catalytic reaction, UGDH S316D. It counts as biochemical. The conditions noted are these: sub-saturating UDP-Glc and NAD+, read-out: UDP-Xylose IC50.
From the text: as §1, §2

In test [3] the target is T3, UGDH WT (Homo sapiens, UniProt O60701).
T3 construct: six-histidine; made in house; host or cells: E. coli BL21(DE3)
T3 sequence (O60701 1-494): T1 sequence (O60701 1-494 S316A) with A316S
The test can be described thus: UDP-Xyl inhibition of the catalytic reaction, UGDH WT. It counts as biochemical. The conditions noted are these: sub-saturating UDP-Glc and NAD+, read-out: UDP-Xylose IC50.
From the text: as §1, §2

Test [4] concerns the target T1, UGDH S316A. The test can be described thus: isothermal titration calorimetry, UDP-Xylose binding to UGDH S316A. The conditions noted are these: ITC, single-site binding model.
From the text: as §1, §2
(ITC needs no label: the signal is the heat of the interaction.)

Test [5] concerns the target T2, UGDH S316D. In words: isothermal titration calorimetry, UDP-Xylose binding to UGDH S316D. The conditions noted are these: ITC.
From the text: as §1, §2

The target in test [6] is T3, UGDH WT. In words: isothermal titration calorimetry, UDP-Xylose binding to UGDH WT. The conditions noted are these: ITC, single-site binding model.
From the text: as §1, §2

The target in test [7] is T4, UGDH S316 phosphorylation by RSK2, S6K1, SGK1 (Homo sapiens, UniProt O60701).
T4 construct: made in house
T4 sequence (O60701 1-494): T1 sequence (O60701 1-494 S316A) with A316S
In words: in vitro kinase assay, phosphorylation of UGDH S316. The conditions noted are these: in vitro kinase assays with RSK2, S6K1, SGK1; data not shown. It counts as biochemical. As to the method:
Due to the location of UGDH S316 at the dimeric interface, we tested whether UGDH oligomeric status influenced the ability of each kinase to phosphorylate UGDH S316. In vitro kinase assays were performed to compare phosphorylation of UGDH S316 in the WT enzyme versus the UGDH T325D obligate dimer mutant. All three kinases produced a phosphorylation band in the dimeric UGDH T325D as expected.
Recombinant UGDH (100 μg) was incubated for 2 h at 30 °C with 1 μg of each kinase and either activated by addition of ATP (200 μM) or a conjugatable ATP analogue, γ-[(6-Azidohexyl)-imido]-ATP. Phosphorylated UGDH was detected by western analysis (using anti-pAkT substrate antibody) or by SDS-PAGE following reaction with tetramethylrhodamine (TAMRA) alkyne, copper, THPTA, and sodium ascorbate.

Where a chain is given by its changes, count along the chain named.

As for `O=c1ccn([C@@H]2O[C@H](COP(=O)(O)OP(=O)(O)O[C@H]3OC[C@@H](O)[C@H](O)[C@H]3O)[C@@H](O)[C@H]2O)c(=O)[nH]1` [UDP-Xylose], the IC50 amounted to 250 ± 60 nM on UGDH S316A [1], 250 ± 30 nM at UGDH S316D [2] and 220 ± 50 nM at UGDH WT [3]. The Kd at UGDH S316A [4] came to 71 ± 20 nM; at UGDH S316D [5] (UGDH S316D, single-site binding model), 150 ± 30 nM; on UGDH WT [6] it was 91 ± 35 nM. Also, the “Kd for UGDH S316D relative to Kd values for UGDH WT and S316A” value at UGDH S316D [5] (higher for S316D) is listed as “≈ 2 fold”. Moreover, the “effect of UDP-Xyl on phosphorylation of UGDH S316” value in test [7] is on record as “did not impact phosphorylation”.
